Laboratory results: patent publication US9708314B2, “Heterocyclic amide compound” (NISSAN CHEMICAL INDUSTRIES, LTD., priority 2013, dated 2017)

Key:
Assay type in all cases: in vivo
[1] = tested on: Echinochloa oryzacola Vasing.; test: Test Example 1: herbicidal activity, application before weed generation in submerged conditions; details: Application herbicide amount 320 g/ha; Seventeenth Table
Method in brief: (§1)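 Pre-emergence application to water surface of submerged pots (4 cm depth, alluvial soil) on sowing day, with 2.5-leaf rice transplanted; emulsion diluted to g/ha rates. Grown in greenhouse at 25–30 °C; 0–5 herbicidal/crop-effect score after three weeks.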

Monochoria vaginalis = test: as above; details: Application herbicide amount 320 g/ha; Seventeenth Table
Method in brief: as §1

Scirpus juncoides = test: as above; details: Application herbicide amount 320 g/ha; Seventeenth Table
Method in brief: as §1

[2] = tested on: transplanted Oryza sativa; test: Test Example 1: effect on crop, application before weed generation in submerged conditions; details: Application herbicide amount 320 g/ha; Seventeenth Table
Method in brief: as §1

Abutilon theophrasti = test: Test Example 4: herbicidal effect by application to foliage (diluvial soil, plastic box); details: application to foliage, application herbicide amount 320 g/ha
Method in brief: (§2)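 Plants were grown in sterilized diluvial soil in a greenhouse at 25-30° C for 14 days, then sprayed on stems and leaves with water-diluted emulsion formulation at set rates in g/ha. Weed control and crop injury were scored 3 weeks after treatment on a 0-5 herbicidal-ratio scale, from 0 (≤5%) to 5 (≥90%).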

Alopecurus myosuroides = test: as above; details: application to foliage, application herbicide amount 320 g/ha
Method in brief: as §2

Apera spica-venti. = test: as above; details: application to foliage, application herbicide amount 320 g/ha
Method in brief: as §2

Avena fatua = test: as above; details: application to foliage, application herbicide amount 320 g/ha
Method in brief: as §2

Chenopodium album = test: as above; details: application to foliage, application herbicide amount 320 g/ha
Method in brief: as §2

Digitaria ciliaris = test: as above; details: application to foliage, application herbicide amount 320 g/ha
Method in brief: as §2

[3] = tested on: Echinochloa crus-galli var. crus-galli; test: as above; details: application to foliage, application herbicide amount 320 g/ha
Method in brief: as §2

Galium spurium = test: as above; details: application to foliage, application herbicide amount 320 g/ha
Method in brief: as §2

Lolium multiflorum Lam. = test: as above; details: application to foliage, application herbicide amount 320 g/ha
Method in brief: as §2

Setaria viridis = test: as above; details: application to foliage, application herbicide amount 320 g/ha
Method in brief: as §2

Veronica persica = test: as above; details: application to foliage, application herbicide amount 320 g/ha
Method in brief: as §2

Compound | A: Echinochloa oryzicola Vasing. (herbicidal effect grade) [1] | C: Monochoria vaginalis (herbicidal effect grade) (Monochoria vaginalis) | B: Scirpus juncoides (herbicidal effect grade) (Scirpus juncoides) | a: transplanted Oryza sativa (effect on crop grade) [2] | M (Abutilon theophrasti) herbicidal effect (Abutilon theophrasti) | J (Alopecurus myosuroides) herbicidal effect (Alopecurus myosuroides) | L (Apera spica-venti.) herbicidal effect (Apera spica-venti.) | I (Avena fatua) herbicidal effect (Avena fatua) | O (Chenopodium album) herbicidal effect (Chenopodium album) | F (Digitaria ciliaris) herbicidal effect (Digitaria ciliaris) | H (Echinochloa crus-galli var. crus-galli) herbicidal effect [3] | Q (Galium spurium) herbicidal effect (Galium spurium) | K (Lolium multiflorum Lam.) herbicidal effect (Lolium multiflorum Lam.) | G (Setaria viridis) herbicidal effect (Setaria viridis) | R (Veronica persica) herbicidal effect (Veronica persica)
CCC(C)c1nnc2c(C(=O)Nc3nnc(C)o3)ccc(C(F)(F)F)n12 (stereo not drawn) [1-021] | 5 (Herbicidal ratio of 90% or more (almost completely withered)) | 4 (Herbicidal ratio of 70% or more and less than 90%) | 4 (Herbicidal ratio of 70% or more and less than 90%) | 2 (Herbicidal ratio of 20% or more and less than 40%) | 5 (Herbicidal ratio of 90% or more (almost completely withered)) | 1 (Herbicidal ratio of 5% or more and less than 20%) | 1 (Herbicidal ratio of 5% or more and less than 20%) | 1 (Herbicidal ratio of 5% or more and less than 20%) | 5 (Herbicidal ratio of 90% or more (almost completely withered)) | 4 (Herbicidal ratio of 70% or more and less than 90%) | 4 (Herbicidal ratio of 70% or more and less than 90%) | 3 (Herbicidal ratio of 40% or more and less than 70%) | 1 (Herbicidal ratio of 5% or more and less than 20%) | 3 (Herbicidal ratio of 40% or more and less than 70%) | 4 (Herbicidal ratio of 70% or more and less than 90%)
Cc1cc(-c2nnc3c(C(=O)Nc4nnc(C)o4)ccc(C(F)(F)F)n23)no1 [1-022] | 2 (Herbicidal ratio of 20% or more and less than 40%) | 0 (Herbicidal ratio of 5% or less (almost no effect)) | 2 (Herbicidal ratio of 20% or more and less than 40%) | 0 (Herbicidal ratio of 5% or less (almost no effect)) | 5 (Herbicidal ratio of 90% or more (almost completely withered)) | 1 (Herbicidal ratio of 5% or more and less than 20%) | 1 (Herbicidal ratio of 5% or more and less than 20%) | 1 (Herbicidal ratio of 5% or more and less than 20%) | 5 (Herbicidal ratio of 90% or more (almost completely withered)) | 4 (Herbicidal ratio of 70% or more and less than 90%) | 5 (Herbicidal ratio of 90% or more (almost completely withered)) | 2 (Herbicidal ratio of 20% or more and less than 40%) | 1 (Herbicidal ratio of 5% or more and less than 20%) | 3 (Herbicidal ratio of 40% or more and less than 70%) | 4 (Herbicidal ratio of 70% or more and less than 90%)
CCCc1nnc2c(C(=O)Nc3nnc(C)o3)ccc(C(F)(F)F)n12 [1-024] | 5 (Herbicidal ratio of 90% or more (almost completely withered)) | 0 (Herbicidal ratio of 5% or less (almost no effect)) | 2 (Herbicidal ratio of 20% or more and less than 40%) | 0 (Herbicidal ratio of 5% or less (almost no effect)) | 4 (Herbicidal ratio of 70% or more and less than 90%) | 0 (Herbicidal ratio of 5% or less (almost no effect)) | 1 (Herbicidal ratio of 5% or more and less than 20%) | 1 (Herbicidal ratio of 5% or more and less than 20%) | 5 (Herbicidal ratio of 90% or more (almost completely withered)) | 4 (Herbicidal ratio of 70% or more and less than 90%) | 4 (Herbicidal ratio of 70% or more and less than 90%) | 3 (Herbicidal ratio of 40% or more and less than 70%) | 0 (Herbicidal ratio of 5% or less (almost no effect)) | 3 (Herbicidal ratio of 40% or more and less than 70%) | 4 (Herbicidal ratio of 70% or more and less than 90%)
Cc1nnc(NC(=O)c2ccc(C(F)(F)F)n3c(C4CCCC4)nnc23)o1 [1-026] | 5 (Herbicidal ratio of 90% or more (almost completely withered)) | 4 (Herbicidal ratio of 70% or more and less than 90%) | 4 (Herbicidal ratio of 70% or more and less than 90%) | 2 (Herbicidal ratio of 20% or more and less than 40%) | 3 (Herbicidal ratio of 40% or more and less than 70%) | 1 (Herbicidal ratio of 5% or more and less than 20%) | 2 (Herbicidal ratio of 20% or more and less than 40%) | 1 (Herbicidal ratio of 5% or more and less than 20%) | 5 (Herbicidal ratio of 90% or more (almost completely withered)) | 3 (Herbicidal ratio of 40% or more and less than 70%) | 3 (Herbicidal ratio of 40% or more and less than 70%) | 2 (Herbicidal ratio of 20% or more and less than 40%) | 1 (Herbicidal ratio of 5% or more and less than 20%) | 3 (Herbicidal ratio of 40% or more and less than 70%) | 5 (Herbicidal ratio of 90% or more (almost completely withered))
CCOCc1nnc2c(C(=O)Nc3nnc(C)o3)ccc(C(F)(F)F)n12 [1-027] | 5 (Herbicidal ratio of 90% or more (almost completely withered)) | 4 (Herbicidal ratio of 70% or more and less than 90%) | 3 (Herbicidal ratio of 40% or more and less than 70%) | 1 (Herbicidal ratio of 5% or more and less than 20%) | 5 (Herbicidal ratio of 90% or more (almost completely withered)) | 2 (Herbicidal ratio of 20% or more and less than 40%) | 3 (Herbicidal ratio of 40% or more and less than 70%) | 2 (Herbicidal ratio of 20% or more and less than 40%) | 5 (Herbicidal ratio of 90% or more (almost completely withered)) | 5 (Herbicidal ratio of 90% or more (almost completely withered)) | 5 (Herbicidal ratio of 90% or more (almost completely withered)) | 3 (Herbicidal ratio of 40% or more and less than 70%) | 1 (Herbicidal ratio of 5% or more and less than 20%) | 4 (Herbicidal ratio of 70% or more and less than 90%) | 5 (Herbicidal ratio of 90% or more (almost completely withered))
Cc1nnc(NC(=O)c2ccc(C(F)(F)F)n3c(C4=NOC(C)(C)C4)nnc23)o1 [1-029] | 5 (Herbicidal ratio of 90% or more (almost completely withered)) | 4 (Herbicidal ratio of 70% or more and less than 90%) | 3 (Herbicidal ratio of 40% or more and less than 70%) | 2 (Herbicidal ratio of 20% or more and less than 40%) | 5 (Herbicidal ratio of 90% or more (almost completely withered)) | 1 (Herbicidal ratio of 5% or more and less than 20%) | 1 (Herbicidal ratio of 5% or more and less than 20%) | 1 (Herbicidal ratio of 5% or more and less than 20%) | 5 (Herbicidal ratio of 90% or more (almost completely withered)) | 5 (Herbicidal ratio of 90% or more (almost completely withered)) | 5 (Herbicidal ratio of 90% or more (almost completely withered)) | 0 (Herbicidal ratio of 5% or less (almost no effect)) | 1 (Herbicidal ratio of 5% or more and less than 20%) | 4 (Herbicidal ratio of 70% or more and less than 90%) | 5 (Herbicidal ratio of 90% or more (almost completely withered))
